These molecules were tested against T1, human PTH1 receptor (Homo sapiens, UniProt Q03431) (assay: In vitro cAMP signal activity in HKRK-B7 cells (LLC-PK1 cells overexpressing the human PTH1 receptor)). Conditions: HKRK-B7 cells; compound at 1×10^−3 M; cAMP produced as percentage of that produced by hPTH(1-34) at 100 nM.
T1 sequence (Q03431 27-593): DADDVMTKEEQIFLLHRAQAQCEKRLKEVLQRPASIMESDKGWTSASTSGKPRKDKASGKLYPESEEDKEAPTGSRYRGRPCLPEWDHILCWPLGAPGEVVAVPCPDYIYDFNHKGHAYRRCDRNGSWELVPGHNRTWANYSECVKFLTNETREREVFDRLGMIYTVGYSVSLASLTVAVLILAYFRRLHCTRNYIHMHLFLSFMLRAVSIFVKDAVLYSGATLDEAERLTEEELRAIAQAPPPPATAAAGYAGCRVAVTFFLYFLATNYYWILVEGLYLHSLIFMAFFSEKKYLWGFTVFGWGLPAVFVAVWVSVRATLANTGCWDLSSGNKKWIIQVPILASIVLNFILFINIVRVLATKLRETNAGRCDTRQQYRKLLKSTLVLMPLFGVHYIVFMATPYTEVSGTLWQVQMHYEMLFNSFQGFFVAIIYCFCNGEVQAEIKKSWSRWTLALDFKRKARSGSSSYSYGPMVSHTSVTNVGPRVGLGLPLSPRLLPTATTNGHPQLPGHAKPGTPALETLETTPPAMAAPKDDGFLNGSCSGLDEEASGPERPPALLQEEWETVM
Format: cell-based

SMILES	cAMP production activity (%)
Cc1cc(N2CCOCC2=O)ccc1CCS(=O)(=O)N1CCC2(CC1)N=C(c1cccc(OC(F)(F)F)c1)NC2=O [Compound 793, 8-{2-[2-methyl-4-(3-oxo-morpholin-4-yl)-phenyl]-ethanesulfonyl}-2-(3-trifluoromethoxy-phenyl)-1,3,8-triaza-spiro[4.5]dec-1-en-4-one]	124
CCCCCCCCCC1=NC2(CCN(S(=O)(=O)CCc3c(C)cc(C(=O)O)cc3C)CC2)C(=O)N1 [Compound 796, 3,5-dimethyl-4-[2-(2-nonyl-4-oxo-1,3,8-triaza-spiro[4.5]dec-1-ene-8-sulfonyl)-ethyl]-benzoic acid]	64
CCCCCCCCCC1=NC2(CCN(S(=O)(=O)CCc3c(C)cc(OCCC(O)CO)cc3C)CC2)C(=O)N1 (centres unmarked) [Compound 798, 8-{2-[4-(3,4-dihydroxy-butoxy)-2,6-dimethyl-phenyl]-ethanesulfonyl}-2-nonyl-1,3,8-triaza-spiro[4.5]dec-1-en-4-one]	101
Cc1cc(N2C(=O)CNC2=O)cc(C)c1CCS(=O)(=O)N1CCC2(CC1)N=C(c1cccc(OC(F)(F)F)c1)NC2=O [Compound 799, 3-(3,5-dimethyl-4-{2-[4-oxo-2-(3-trifluoromethoxy-phenyl)-1,3,8-triaza-spiro[4.5]dec-1-ene-8-sulfonyl]-ethyl}-phenyl)-imidazolidine-2,4-dione]	7.1
Cc1cc(N2C(=O)CNC2=O)cc(C)c1CCS(=O)(=O)N1CCC2(CC1)N=C(c1ccc(F)c(C(F)(F)F)c1)NC2=O [Compound 800, 3-(4-{2-[2-(4-fluoro-3-trifluoromethyl-phenyl)-4-oxo-1,3,8-triaza-spiro[4.5]dec-1-ene-8-sulfonyl]-ethyl}-3,5-dimethyl-phenyl)-imidazolidine-2,4-dione]	77
Cc1cc(OCCC(O)CO)cc(C)c1CCS(=O)(=O)N1CCC2(CC1)N=C(c1ccc(F)c(C(F)(F)F)c1)NC2=O (centres unmarked) [Compound 801, 8-{2-[4-(3,4-dihydroxy-butoxy)-2,6-dimethyl-phenyl]-ethanesulfonyl}-2-(4-fluoro-3-trifluoromethyl-phenyl)-1,3,8-triaza-spiro[4.5]dec-1-en-4-one]	103
CC(=O)Nc1ccc(CCS(=O)(=O)N2CCC3(CC2)N=C(C2CCC(C)CC2)NC3=O)c(OC(C)C)c1 (centres unmarked) [Compound 812, N-(3-isopropoxy-4-{2-[2-(4-methyl-cyclohexyl)-4-oxo-1,3,8-triaza-spiro[4.5]dec-1-ene-8-sulfonyl]-ethyl}-phenyl)-acetamide]	105
CCCCCCCCCC1=NC2(CCN(S(=O)(=O)CCc3c(C)cc(N(C)C(N)=O)cc3C)CC2)C(=O)N1 [Compound 817, 1-{3,5-dimethyl-4-[2-(2-nonyl-4-oxo-1,3,8-triaza-spiro[4.5]dec-1-ene-8-sulfonyl)-ethyl]-phenyl}-1-methyl-urea]	111
Cc1cc(OC[C@H](O)CO)cc(C)c1CCS(=O)(=O)N1CCC2(CC1)N=C(C1CCC(CCC(F)(F)F)CC1)NC2=O (stereo partly drawn) [Compound 821, 8-{2-[4-((R)-2,3-dihydroxy-propoxy)-2,6-dimethyl-phenyl]-ethanesulfonyl}-2-[4-(3,3,3-trifluoro-propyl)-cyclohexyl]-1,3,8-triaza-spiro[4.5]dec-1-en-4-one]	82
O=C1NC(C2CCC(CCC(F)(F)F)CC2)=NC12CCN(S(=O)(=O)CCc1cccc3c1ccn3CCOC[C@H](O)[C@@H](O)CO)CC2 (stereo partly drawn) [Compound 823, 2-[4-(3,3,3-trifluoro-propyl)-cyclohexyl]-8-(2-{1-[2-((2S,3S)-2,3,4-trihydroxy-butoxy)-ethyl]-1H-indol-4-yl}-ethanesulfonyl)-1,3,8-triaza-spiro[4.5]dec-1-en-4-one]	103

Second part, the molecule after the results:

cAMP production activity (%)	SMILES
110	Cc1cc(N2C(=O)CNC2=O)ccc1CCS(=O)(=O)N1CCC2(CC1)N=C(c1cccc(OC(F)(F)F)c1)NC2=O [Compound 792, 3-(3-methyl-4-{2-[4-oxo-2-(3-trifluoromethoxy-phenyl)-1,3,8-triaza-spiro[4.5]dec-1-ene-8-sulfonyl]-ethyl}-phenyl)-imidazolidine-2,4-dione]
76	CC(=O)N(CCO)c1cc(C)c(CCS(=O)(=O)N2CCC3(CC2)N=C(c2ccc(F)c(C(F)(F)F)c2)NC3=O)c(C)c1 [Compound 794, N-(4-{2-[2-(4-fluoro-3-trifluoromethyl-phenyl)-4-oxo-1,3,8-triaza-spiro[4.5]dec-1-ene-8-sulfonyl]-ethyl}-3,5-dimethyl-phenyl)-N-(2-hydroxy-ethyl)-acetamide]
97	CCCCCCCCCC1=NC2(CCN(S(=O)(=O)CCc3ccc(N4C(=O)CNC4=O)cc3C(F)(F)F)CC2)C(=O)N1 [Compound 795, 3-{4-[2-(2-nonyl-4-oxo-1,3,8-triaza-spiro[4.5]dec-1-ene-8-sulfonyl)-ethyl]-3-trifluoromethyl-phenyl}-imidazolidine-2,4-dione]
88	Cc1cc(C(=O)N2CCC(O)CC2)cc(C)c1CCS(=O)(=O)N1CCC2(CC1)N=C(c1ccc(F)c(C(F)(F)F)c1)NC2=O [Compound 797, 2-(4-fluoro-3-trifluoromethyl-phenyl)-8-{2-[4-(4-hydroxy-piperidine-1-carbonyl)-2,6-dimethyl-phenyl]-ethanesulfonyl}-1,3,8-triaza-spiro[4.5]dec-1-en-4-one]
100	Cc1cc(C(=O)N2CCC(O)(CF)CC2)cc(C)c1CCS(=O)(=O)N1CCC2(CC1)N=C(c1ccc(F)c(C(F)(F)F)c1)NC2=O [Compound 802, 8-{2-[4-(4-fluoromethyl-4-hydroxy-piperidine-1-carbonyl)-2,6-dimethyl-phenyl]-ethanesulfonyl}-2-(4-fluoro-3-trifluoromethyl-phenyl)-1,3,8-triaza-spiro[4.5]dec-1-en-4-one]
103	Cc1cc(C(=O)N2CCC(C)(O)CC2)cc(C)c1CCS(=O)(=O)N1CCC2(CC1)N=C(c1ccc(F)c(C(F)(F)F)c1)NC2=O [Compound 803, 2-(4-fluoro-3-trifluoromethyl-phenyl)-8-{2-[4-(4-hydroxy-4-methyl-piperidine-1-carbonyl)-2,6-dimethyl-phenyl]-ethanesulfonyl}-1,3,8-triaza-spiro[4.5]dec-1-en-4-one]
78	Cc1cc(C(=O)N2CCC3(CC2)COC3)cc(C)c1CCS(=O)(=O)N1CCC2(CC1)N=C(c1ccc(F)c(C(F)(F)F)c1)NC2=O [Compound 804, 8-{2-[2,6-dimethyl-4-(2-oxa-7-aza-spiro[3.5]nonane-7-carbonyl)-phenyl]-ethanesulfonyl}-2-(4-fluoro-3-trifluoromethyl-phenyl)-1,3,8-triaza-spiro[4.5]dec-1-en-4-one]
79	Cc1cc(N(CCF)C(N)=O)cc(C)c1CCS(=O)(=O)N1CCC2(CC1)N=C(C1CCC(CCC(F)(F)F)CC1)NC2=O (centres unmarked) [Compound 818, 1-[3,5-dimethyl-4-(2-{4-oxo-2-[4-(3,3,3-trifluoro-propyl)-cyclohexyl]-1,3,8-triaza-spiro[4.5]dec-1-ene-8-sulfonyl}-ethyl)-phenyl]-1-(2-fluoro-ethyl)-urea]
98	CC(=O)N(CCOCCO)c1cc(C)c(CCS(=O)(=O)N2CCC3(CC2)N=C(C2CCC(CCC(F)(F)F)CC2)NC3=O)c(C)c1 (centres unmarked) [Compound 820, N-[3,5-dimethyl-4-(2-{4-oxo-2-[4-(3,3,3-trifluoro-propyl)-cyclohexyl]-1,3,8-triaza-spiro[4.5]dec-1-ene-8-sulfonyl}-ethyl)-phenyl]-N-[2-(2-hydroxy-ethoxy)-ethyl]-acetamide]
99	O=C1NC(C2CCC(CCC(F)(F)F)CC2)=NC12CCN(S(=O)(=O)CCc1cccc3c1ccn3CCOC[C@@H](O)CO)CC2 (stereo partly drawn) [Compound 822, 8-(2-{1-[2-((S)-2,3-dihydroxy-propoxy)-ethyl]-1H-indol-4-yl}-ethanesulfonyl)-2-[4-(3,3,3-trifluoro-propyl)-cyclohexyl]-1,3,8-triaza-spiro[4.5]dec-1-en-4-one]
140	CC(=O)N(C[C@H](O)CO)c1cc(C)c(CCS(=O)(=O)N2CCC3(CC2)N=C(CCCCCCCCC(F)(F)F)NC3=O)c(C)c1 [Compound 824, N—((S)-2,3-dihydroxy-propyl)-N-(3,5-dimethyl-4-{2-[4-oxo-2-(9,9,9-trifluoro-nonyl)-1,3,8-triaza-spiro[4.5]dec-1-ene-8-sulfonyl]-ethyl}-phenyl)-acetamide]
114	CCCCCCCCCC1=NC2(CCN(S(=O)(=O)CCc3ccc(N(CCOCCO)C(C)=O)cc3C)CC2)C(=O)N1 [Compound 825, N-[2-(2-hydroxy-ethoxy)-ethyl]-N-{3-methyl-4-[2-(2-nonyl-4-oxo-1,3,8-triaza-spiro[4.5]dec-1-ene-8-sulfonyl)-ethyl]-phenyl}-acetamide]
90	Cc1cc(N(CCOCCO)C(N)=O)cc(C)c1CCS(=O)(=O)N1CCC2(CC1)N=C(C1CCC(CCC(F)(F)F)CC1)NC2=O (centres unmarked) [Compound 826, 1-[3,5-dimethyl-4-(2-{4-oxo-2-[4-(3,3,3-trifluoro-propyl)-cyclohexyl]-1,3,8-triaza-spiro[4.5]dec-1-ene-8-sulfonyl}-ethyl)-phenyl]-1-[2-(2-hydroxy-ethoxy)-ethyl]-urea]

Source: US9169254B2, “Spiroimidazolone derivative” (Chugai Seiyaku Kabushiki Kaisha, priority 2009, dated 2015)
